Test results published in patent US20130224110A1, “USE OF ADENOSINE RECEPTOR SIGNALING TO MODULATE PERMEABILITY OF BLOOD-BRAIN BARRIER” (CORNELL UNIVERSITY, priority 2010, published 2013).

What was measured:
[1] = tested on: blood brain barrier; assay: Fluorescently labeled dextran extravasation into mouse brain (fluorimetry); format: in vivo, mice
Protocol: The adenosine receptor agonists NECA, CCPA, CGS 21860, and SCH 58261 (Tocris, Ellisville, Mo.) were each dissolved in DMSO then diluted in PBS to the desired concentration; in most cases final DMSO concentrations were <0.5% (vol/vol). Lexiscan (Regadenoson; TRC, Inc., Toronto) was dissolved in PBS. For vehicle controls, DMSO was diluted in PBS to the same concentration. Dehydrated dextrans labeled with either FITC or Texas Red (Invitrogen, Carlsbad, Calif.) were re-suspended in PBS to 10 mg/ml. All experiments involving dextran injection used 1.0 mg dextran in PBS. In experiments where drug and dextran were injected concomitantly, 1.0 mg of dextran was mixed with the drug to the desired concentration in a final volume of 200 μl. In dose-response experiments, drugs and dextrans were injected concomitantly. All injections, except injections of SCH 58261, were retro-orbital i.v. with a 27-gauge needle. In the SCH 58261 experiment, SCH 58261 injections, 1 mg/kg, were intraperitoneal and mice were pre-dosed with this concentration daily for 4 days prior to the day of the experiment. An additional injection was administered at the time of the experiment. Vehicle/drug and dextrans were injected on day 5 and tissues were collected 3 h after vehicle/drug administration. In Lexiscan experiments, Lexiscan was administered i.v. with 3 injections, 5 min apart and tissues were collected at 15 min unless otherwise indicated.
In dose-response experiments and experiments with the A1 AR and A2A AR knock-out mice, drugs and dextrans were injected concomitantly. After 3 h, the mice were anesthetized with ketamine/xylazine and subjected to a nose cone containing isoflurane. They were perfused with 25-50 ml ice-cold PBS through the left ventricle of the heart then decapitated. Their brains were removed, weighed and frozen for later analysis.
Ice-cold 50 mMTris-Cl (pH 7.6) was added to frozen brains (100 μl per 100 mg brain) and were to thawed on ice. They were homogenized with a dounce homogenizer and centrifuged at […] in a microfuge for 30 min at room temperature (rt). The supernatants were transferred to new tubes and an equal volume absolute methanol was added. The samples were centrifuged again at […] for 30 min at rt. Supernatant (200 μl) was transferred to a Corning costar 96 well black polystyrene assay plate (clear bottom). Additionally, a series of standards containing 0.001-10 pg/ml dextran in 50% Tris-Cl/50% absolute methanol (vol/vol) was added to each plate. Absolute concentrations of dextrans were derived from these standard curves. Fluorimetric analysis was performed on a BioTek (Winooski, Vt.) Synergy 4. FITC-dextran was detected at 488/519 (excitation/emission) and Texas Red-dextran was detected at 592/618.

[2] = tested on: blood brain barrier; assay: Entry of i.v. anti-β-amyloid antibody 6E10 into brain of transgenic AD (APP/PSEN) mice after NECA; format: in vivo; conditions: NECA i.v. 3 h before 6E10 i.v., brains collected after 90 min
Protocol: Wild type and transgenic (AD) mice were given 0.80 μg NECA (i.v.). After 3 h, 400 μg of antibody to β-amyloid (200 μl of 2 mg/ml; clone 6E10, Covance, Princeton, N.J.) was administered i.v. and the mice rested for 90 min. Mice were then anesthetized and perfused as described above and their brains were placed in OTC and flash-frozen for later sectioning. Sagital sections (6 μm) were fixed in acetone for 10 min, then washed in PBS. Sections were blocked with casein for 20 min then incubated with 1:50 dilution of goat anti-mouse IgCy5 (polyclonal, 1 mg/ml, Abcam, Cabridge, Mass.) for 20 min then washed 3 times in PBS. Sections were then dried and mounted with VectashieldHardset mounting media with DAPI (Vector Laboratories, Burlingame, Calif.). Images were obtained on a Zeiss Axio Imager M1 fluorescent microscope.
The most challenging therapeutic agents to get across the BBB are macromolecules such as antibodies, due to their enormous size (˜150 kDa). It was asked whether adenosine receptor modulation with NECA can facilitate the entry of antibodies into the CNS. To test this, a double [amyloid precursor protein (APP)/presenilin (PSEN)] transgenic mouse model of AD [strain B6.Cg-Tg(APPswe,PSEN1dE9)85Dbo/J] was used. […]

[3] = tested on: Bend.3 cells; assay: Tight junction molecule staining (ZO-1, Claudin-5, Occludin); format: cell-based, mouse; conditions: 1 μM, 1 h
Protocol: Bend.3 cells grown on collagen coated coverslips were incubated with DMSO vehicle, NECA (1 μM), or Lexiscan (1 μM) for 1 h. Cells were washed with PBS, fixed with 4% paraformaldehyde, and permeabilized with 0.5% Triton-X in PBS. Cells were blocked with PBS/BSA/goat serum and then stained with antibodies (Invitrogen) against either ZO-1 (1A12), Claudin-5 (34-1600), or Occludin (3F10). Following a wash step, cells were incubated with either goat anti-rabbit IgTexas Red-X or goat anti-mouse IgCy5 (Invitrogen). Cover slips were washed and mounted on slides with ProlongGold containing DAPI. Images were obtained on a Zeiss Axio Imager M1 fluorescent microscope.

[4] = cited from earlier work
[5] = tested on: HCMECD3 cells; assay: cAMP levels in human brain endothelial cells (cAMP Screen kit); format: cell-based; conditions: 15 minutes
Protocol: […]3 cells were grown to confluencey on 24 well plates. As adenosine receptor (“AR”) stimulation is known to influence cAMP levels, cells were treated with or without various concentrations of NECA (general AR agonist), CCPA (A1 AR agonist), CGS 21860 (A2A AR agonist), DMSO vehicle, or Forksolin (induces cAMP). After 15 minutes, lysis buffer was added and the cells were frozen at -80 C to stop the reaction. Duplicate samples were used for each condition. cAMP levels were assayed using a cAMP Screen kit (Applied Biosystems, Foster City, Calif.).

SMILES | BBB permeability after NECA administration with A2A blockade ([1]; A1 AR−/− mice pre-treated with the antagonist before NECA) | entry of 10,000 Da FITC-dextran into brain ([1]; WT mice, 1 mg/kg intraperitoneal daily for 4 days plus day of experiment) | levels of i.v.-administered dextrans in brain compared to wild type mice ([1]; A1−/− and A2A−/− mice, i.v., 3 h) | FITC-dextran extravasation into brain (pilot experiment, data not shown) ([1]; CD73−/− mice, 10,000 Da FITC-dextran i.v.) | time of maximum entry of labeled dextran into the CNS post-treatment ([1]; WT mice, 0.08 mg/kg i.v., dextran co-administered at T0) | time by which barrier permeability returns to baseline ([1]; WT mice, 0.08 mg/kg i.v., dextran given at indicated times after treatment) | effect of higher concentrations on dextran entry ([1]; WT mice, doses above 0.08 mg/kg) | dose giving maximum entry of dextrans into the CNS ([1]; WT mice, i.v., 3 h) | CNS entry of 10,000 Da and 70,000 Da dextrans ([1]; WT mice, i.v., 3 h, varying dose, vs vehicle) | binding of i.v. injected 6E10 antibody to Aβ plaques in brain [2] | ZO-1 and claudin-5 expression [3] | occludin expression [3] | half-life [4] | cAMP levels [5]
Nc1nc2c(cnn2CCc2ccccc2)c2nc(-c3ccco3)nn12 [SCH58261, 2-(2-Furanyl)-7-(2-phenylethyl)-7H-pyrazolo[4,3-e][1,2,4]triazolo[1,5-c]pyrimidin-5-amine] | no significant increase in BBB permeability was observed | significantly decreased entry of 10,000 Da FITC-dextran |  |  |  |  |  |  |  |  |  |  |  | 
CCNC(=O)[C@H]1O[C@@H](n2cnc3c(N)ncnc32)[C@H](O)[C@@H]1O [NECA, 5′-N-ethylcarboxamido adenosine] |  |  | significantly lower levels | dramatic increase in FITC-dextran extravasation | 4 to 6 h | 8 to 18 h | no additional effect or show diminished efficacy | 0.08 mg/kg | dose-dependent increases in CNS entry | Binding of 6E10 antibody to Aβ plaques was observed throughout the brains | discreet alterations in ZO-1 and claudin-5 | severely diminished occludin expression | ~5 h | increased cAMP levels
